Assay results: article doi:10.1101/2023.03.24.534094v2 (biorxiv, 2023)
Like-named read-outs stand apart in the source and are kept apart here. One block for each compound: values may come before it.

Tests used:
Assay in all cases: biochemical
[1] = target: PCTAIRE1 (Homo sapiens, UniProt Q00536)
[2] = target: T1, TLK1 (Homo sapiens, UniProt Q9UKI8)
T1 sequence (Q9UKI8 1-766): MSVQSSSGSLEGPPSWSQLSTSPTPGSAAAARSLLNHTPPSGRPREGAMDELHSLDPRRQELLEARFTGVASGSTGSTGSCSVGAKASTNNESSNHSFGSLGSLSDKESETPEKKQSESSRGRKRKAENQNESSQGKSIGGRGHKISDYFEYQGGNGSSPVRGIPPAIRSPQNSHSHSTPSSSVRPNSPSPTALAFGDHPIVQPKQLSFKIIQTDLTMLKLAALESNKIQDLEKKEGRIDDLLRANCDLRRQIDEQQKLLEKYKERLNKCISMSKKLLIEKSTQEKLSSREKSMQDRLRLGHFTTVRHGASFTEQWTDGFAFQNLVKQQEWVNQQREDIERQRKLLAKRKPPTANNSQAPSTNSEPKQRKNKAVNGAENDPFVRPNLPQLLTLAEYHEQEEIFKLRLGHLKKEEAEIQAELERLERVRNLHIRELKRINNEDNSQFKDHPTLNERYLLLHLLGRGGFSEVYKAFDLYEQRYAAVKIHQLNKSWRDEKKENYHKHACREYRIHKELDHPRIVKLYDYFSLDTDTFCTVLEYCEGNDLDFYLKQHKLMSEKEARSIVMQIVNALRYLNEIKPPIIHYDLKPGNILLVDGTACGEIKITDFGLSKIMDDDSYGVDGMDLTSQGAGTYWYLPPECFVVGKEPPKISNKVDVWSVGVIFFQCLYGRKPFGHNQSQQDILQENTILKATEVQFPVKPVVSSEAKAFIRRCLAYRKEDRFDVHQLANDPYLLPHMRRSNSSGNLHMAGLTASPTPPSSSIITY

[3] = target: BRD4 (Homo sapiens, UniProt O60885)
[4] = target: T2, GAK (Homo sapiens, UniProt O14976)
T2 sequence (O14976 1-1311): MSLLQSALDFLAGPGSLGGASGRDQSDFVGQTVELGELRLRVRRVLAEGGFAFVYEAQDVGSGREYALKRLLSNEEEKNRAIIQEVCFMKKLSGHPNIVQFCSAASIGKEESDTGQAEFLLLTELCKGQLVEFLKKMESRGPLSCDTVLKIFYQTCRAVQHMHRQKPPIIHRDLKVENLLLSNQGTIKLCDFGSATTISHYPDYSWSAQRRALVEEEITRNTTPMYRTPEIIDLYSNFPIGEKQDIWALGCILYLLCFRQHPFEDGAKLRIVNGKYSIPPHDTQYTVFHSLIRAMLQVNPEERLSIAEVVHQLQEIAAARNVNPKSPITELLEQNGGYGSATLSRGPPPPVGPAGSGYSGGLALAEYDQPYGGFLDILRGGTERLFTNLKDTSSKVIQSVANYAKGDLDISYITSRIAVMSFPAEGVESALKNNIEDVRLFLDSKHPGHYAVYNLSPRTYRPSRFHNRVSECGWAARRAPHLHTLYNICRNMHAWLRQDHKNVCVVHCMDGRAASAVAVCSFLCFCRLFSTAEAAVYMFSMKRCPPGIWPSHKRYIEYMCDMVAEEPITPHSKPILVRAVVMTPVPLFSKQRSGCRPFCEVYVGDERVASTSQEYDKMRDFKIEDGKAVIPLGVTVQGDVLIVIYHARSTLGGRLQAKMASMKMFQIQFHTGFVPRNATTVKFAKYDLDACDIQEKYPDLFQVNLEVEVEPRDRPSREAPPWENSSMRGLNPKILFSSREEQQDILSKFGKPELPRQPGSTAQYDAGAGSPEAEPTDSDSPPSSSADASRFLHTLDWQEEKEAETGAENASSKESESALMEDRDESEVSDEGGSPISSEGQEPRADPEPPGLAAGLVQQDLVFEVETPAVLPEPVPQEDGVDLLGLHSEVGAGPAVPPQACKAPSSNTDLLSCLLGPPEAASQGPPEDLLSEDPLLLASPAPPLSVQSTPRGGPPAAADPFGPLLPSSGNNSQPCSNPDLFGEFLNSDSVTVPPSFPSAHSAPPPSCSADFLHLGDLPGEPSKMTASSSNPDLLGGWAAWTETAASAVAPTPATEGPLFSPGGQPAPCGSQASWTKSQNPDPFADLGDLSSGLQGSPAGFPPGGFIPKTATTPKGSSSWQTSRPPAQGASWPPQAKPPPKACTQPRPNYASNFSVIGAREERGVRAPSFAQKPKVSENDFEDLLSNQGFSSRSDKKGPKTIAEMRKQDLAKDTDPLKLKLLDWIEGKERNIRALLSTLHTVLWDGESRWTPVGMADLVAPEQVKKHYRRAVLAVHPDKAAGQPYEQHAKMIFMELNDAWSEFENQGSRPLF

[5] = target: HIPK2 (Homo sapiens, UniProt Q9H2X6)
HIPK2, sequence (Q9H2X6 whole entry): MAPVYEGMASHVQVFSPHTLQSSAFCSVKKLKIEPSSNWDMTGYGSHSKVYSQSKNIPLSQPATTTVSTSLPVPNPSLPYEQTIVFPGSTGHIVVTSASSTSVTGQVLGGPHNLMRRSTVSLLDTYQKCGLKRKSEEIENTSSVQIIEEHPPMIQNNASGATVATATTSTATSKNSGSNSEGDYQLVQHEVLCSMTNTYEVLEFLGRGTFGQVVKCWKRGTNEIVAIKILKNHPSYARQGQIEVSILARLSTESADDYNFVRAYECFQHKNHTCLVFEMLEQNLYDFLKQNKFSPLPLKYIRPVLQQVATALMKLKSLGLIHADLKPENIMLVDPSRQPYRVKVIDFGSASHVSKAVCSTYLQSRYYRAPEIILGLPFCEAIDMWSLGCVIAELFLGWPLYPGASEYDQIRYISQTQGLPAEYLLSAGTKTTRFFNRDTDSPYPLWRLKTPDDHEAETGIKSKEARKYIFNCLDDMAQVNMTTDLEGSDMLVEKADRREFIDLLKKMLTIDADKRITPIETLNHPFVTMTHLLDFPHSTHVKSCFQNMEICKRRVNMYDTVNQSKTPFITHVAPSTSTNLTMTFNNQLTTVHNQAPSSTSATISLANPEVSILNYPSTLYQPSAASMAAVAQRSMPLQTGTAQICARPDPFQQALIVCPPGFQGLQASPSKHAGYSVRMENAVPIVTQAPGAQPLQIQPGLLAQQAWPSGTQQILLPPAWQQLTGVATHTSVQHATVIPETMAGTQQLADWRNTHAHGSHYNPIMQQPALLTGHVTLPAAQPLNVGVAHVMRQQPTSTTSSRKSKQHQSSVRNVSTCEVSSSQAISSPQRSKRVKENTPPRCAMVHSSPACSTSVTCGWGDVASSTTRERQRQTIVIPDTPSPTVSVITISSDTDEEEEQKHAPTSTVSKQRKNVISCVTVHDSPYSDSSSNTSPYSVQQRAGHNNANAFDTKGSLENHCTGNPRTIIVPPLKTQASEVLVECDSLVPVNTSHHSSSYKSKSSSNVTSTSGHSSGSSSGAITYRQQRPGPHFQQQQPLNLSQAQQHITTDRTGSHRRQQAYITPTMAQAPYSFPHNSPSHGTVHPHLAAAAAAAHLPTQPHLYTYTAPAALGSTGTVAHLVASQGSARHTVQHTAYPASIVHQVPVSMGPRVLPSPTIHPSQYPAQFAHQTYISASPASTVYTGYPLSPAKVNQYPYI

[6] = target: T3, DRAK1 (Homo sapiens, UniProt Q9UEE5)
T3 sequence (Q9UEE5 1-414): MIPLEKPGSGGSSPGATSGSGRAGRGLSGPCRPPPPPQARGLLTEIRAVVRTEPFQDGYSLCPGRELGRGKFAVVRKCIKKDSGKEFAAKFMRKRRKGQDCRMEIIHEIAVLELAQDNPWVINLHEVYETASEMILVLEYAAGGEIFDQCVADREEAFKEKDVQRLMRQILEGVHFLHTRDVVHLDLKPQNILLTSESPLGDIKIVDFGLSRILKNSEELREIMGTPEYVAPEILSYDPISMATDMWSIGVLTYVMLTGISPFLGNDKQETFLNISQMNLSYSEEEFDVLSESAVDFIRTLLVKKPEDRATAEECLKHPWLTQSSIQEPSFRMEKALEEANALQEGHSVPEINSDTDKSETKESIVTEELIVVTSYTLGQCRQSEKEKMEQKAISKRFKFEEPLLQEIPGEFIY

PCTAIRE1, sequence (Q00536 whole entry): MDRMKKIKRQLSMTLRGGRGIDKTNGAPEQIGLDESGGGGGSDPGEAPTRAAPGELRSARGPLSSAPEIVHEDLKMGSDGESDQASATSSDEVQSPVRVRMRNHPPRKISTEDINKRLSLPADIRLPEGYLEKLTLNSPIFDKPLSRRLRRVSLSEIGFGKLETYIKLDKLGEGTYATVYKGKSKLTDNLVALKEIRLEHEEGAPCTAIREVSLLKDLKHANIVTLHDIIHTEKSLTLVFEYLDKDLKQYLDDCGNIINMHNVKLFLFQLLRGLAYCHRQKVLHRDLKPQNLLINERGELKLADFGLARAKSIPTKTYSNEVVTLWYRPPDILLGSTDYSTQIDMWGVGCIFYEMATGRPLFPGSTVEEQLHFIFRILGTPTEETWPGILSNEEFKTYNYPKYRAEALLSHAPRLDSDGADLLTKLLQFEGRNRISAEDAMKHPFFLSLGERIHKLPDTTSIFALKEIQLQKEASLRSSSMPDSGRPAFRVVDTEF

ΔTm at 10 µM ([1]; read-out: dTm 12): 1.3 °C
ΔTm at 10 µM ([2]; read-out: dTm 12): -1.5 °C
ΔTm at 10 µM ([3]; read-out: dTm 12): -2 °C
ΔTm at 10 µM ([4]; read-out: dTm 12): 7.6 °C
ΔTm at 10 µM ([5]; read-out: dTm 12): 0.4 °C
ΔTm at 10 µM ([6]; read-out: dTm 12): 0 °C
SMILES: CNc1ncc2cc(-c3cc(F)c(-c4cccc(C)n4)cc3F)c(=O)n(CCCCN)c2n1 [compound 12, 8-(4-Aminobutyl)-6-(2,5-difluoro-4-(6-methylpyridin-2-yl)phenyl)-2-(methylamino)pyrido[2,3-d]pyrimidin-7(8H)-one]

ΔTm at 10 µM ([1]; read-out: dTm 10): 0.6 °C
ΔTm at 10 µM ([2]; read-out: dTm 10): 0.5 °C
ΔTm at 10 µM ([3]; read-out: dTm 10): 1.2 °C
ΔTm at 10 µM ([4]; read-out: dTm 10): 3.3 °C
ΔTm at 10 µM ([5]; read-out: dTm 10): 0.8 °C
ΔTm at 10 µM ([6]; read-out: dTm 10): -0.8 °C
SMILES: CNc1ncc2cc(-c3cc(Cl)ccc3Br)c(=O)n(CCCCN)c2n1 [compound 10, 8-(4-Aminobutyl)-6-(2-bromo-5-chlorophenyl)-2-(methylamino)pyrido[2,3-d]pyrimidin-7(8H)-one]

Continued, compound first:

SMILES: CNc1ncc2cc(-c3cc(Br)ccc3Br)c(=O)n(CCCCN)c2n1 [compound 11, 8-(4-Aminobutyl)-6-(2,5-dibromophenyl)-2-(methylamino)pyrido[2,3-d]pyrimidin-7(8H)-one]
ΔTm at 10 µM ([1]; read-out: dTm 11): 0.9 °C
ΔTm at 10 µM ([2]; read-out: dTm 11): 1 °C
ΔTm at 10 µM ([3]; read-out: dTm 11): 1 °C
ΔTm at 10 µM ([4]; read-out: dTm 11): 3.3 °C
ΔTm at 10 µM ([5]; read-out: dTm 11): 0.8 °C
ΔTm at 10 µM ([6]; read-out: dTm 11): -0.8 °C

SMILES: CNc1ncc2cc(-c3cc(C(F)(F)F)ccc3Cl)c(=O)n(CCCCN)c2n1 [compound 9, 8-(4-Aminobutyl)-6-(2-chloro-5-(trifluoromethyl)phenyl)-2-(methylamino)pyrido[2,3-d]pyrimidin-7(8H)-one]
ΔTm at 10 µM ([1]; read-out: dTm 9): 0.2 °C
ΔTm at 10 µM ([2]; read-out: dTm 9): 0.7 °C
ΔTm at 10 µM ([3]; read-out: dTm 9): 0.7 °C
ΔTm at 10 µM ([4]; read-out: dTm 9): 1 °C
ΔTm at 10 µM ([5]; read-out: dTm 9): 0.7 °C
ΔTm at 10 µM ([6]; read-out: dTm 9): -1.1 °C

SMILES: CNc1ncc2cc(-c3cc(Cl)ccc3Cl)c(=O)n(CCCCN)c2n1 [compound 8, 8-(4-Aminobutyl)-6-(2,5-dichlorophenyl)-2-(methylamino)pyrido[2,3-d]pyrimidin-7(8H)-one]
ΔTm at 10 µM ([1]; read-out: dTm 8): 0.7 °C
ΔTm at 10 µM ([2]; read-out: dTm 8): 1 °C
ΔTm at 10 µM ([3]; read-out: dTm 8): 1.3 °C
ΔTm at 10 µM ([4]; read-out: dTm 8): 3.7 °C
ΔTm at 10 µM ([5]; read-out: dTm 8): 0.7 °C
ΔTm at 10 µM ([6]; read-out: dTm 8): 1.1 °C
